Experiments:
[1] = rat PK, in-house experiment; settings: in vivo
[2] = in vivo rat oral dose study: metabolism, excretion and disposition (plasma, tissues, urine, bile; UV/mass integration)
Procedure: The in vivo rat studies were performed following the administration of a 30 mg/kg dose of AE90015. Plasma, urine, and tissue samples were collected from two rats in a metabolic cage, and bile samples were collected from two bile duct-cannulated rats. The urine and bile samples were collected from 0 to 24 h post-administration. The tissues and plasma samples were collected at 24 h post-administration. This study was carried out to explore all metabolites, particularly the phase II metabolites, and to identify the metabolites being excreted and understand their excretion pathways. Additionally, determining whether AE90015 itself is directly cleared through urine and bile is crucial for explaining its pharmacokinetic clearance value in rats.
For quantification, a photodiode array detector connected to UPLC in parallel to the LTQ-Obitrap mass spectrometer, detecting at 260 nm absorption, and combined with mass response was used to quantitatively measure, sometimes with compromised accuracy, the metabolites and AE90015 in all of the samples. For well-separated metabolites in the liquid chromatogram, their UV 260 nm absorption peak integration represented their molar response. When the metabolites’ UV peaks overlap with each other, UV integration is not feasible, but the integration of extracted metabolite mass is much easier. […] It was assumed that each metabolite’s UV integration-to-mass integration ratio is equal, allowing for a good approximation within the same category of metabolites. This assumption was validated by many of the metabolites measured in this study and previous studies. When no UV integration is available, multiplying the mass integration by the […] yielded in the UV integration.
The distribution of normalized integration values for the parent drug AE90015 and its metabolites in plasma, urine, bile, and tissues, including liver, brain, and kidney, is summarized in Table 1. […] In this experiment, all amounts of AE90015 and its metabolites in the plasma, urine, and bile samples were obtained from UV responses, which were adjusted to their total volume in the rat. For the liver, brain, and kidney tissues, these amounts were normalized to tissue weight. The sample dilution factors used in the analysis were also converted back.
The values in Table 1 represent the relative molar amounts of each metabolite of AE90015 remaining in the plasma and tissues or excreted in urine or bile 24 h post-dose. These values were derived either directly from UV 260 nm integration or from mass response integration, multiplied by the UV/mass ratio for each metabolite category, and further adjusted to plasma, urine volume, or tissue weight. The details of the calculation methods are provided in Section 3.
Two rats weighing 0.266 and 0.252 kg received 30 mg/kg oral doses of AE90015, formulated with hydroxypropyl-beta-cyclodextrin, for the bile collection study, which was carried out for 0–24 h, and a total of 33.6 mL of bile was pooled together from the 2 rats. The two rats used for the bile collection study underwent bile duct cannulation surgery 2 days before the AE90015 dosing and bile collection. Before the surgery, the rats were anesthetized with ketamine (43 mg/kg body weight) and xylazine (8.7 mg/kg body weight). After surgical skin preparation, two catheters (intestinal and biliary) were passed subcutaneously from the dorsal scapular region into the abdomen. Through ventral midline abdominal incision, the bile duct was isolated and ligated, and the biliary catheter was inserted into the bile duct and secured. The intestinal catheter tip was placed into the duodenum just distal to the entry point of the bile duct and secured by the placement of a purse string suture. […]

human mGlu5 receptor = test system: human mGlu5 receptor; parameters: method as in PMID 34469715; settings: NAM; cited from earlier work
mGlu1 = settings: cited from earlier work
mGlu2 = settings: cited from earlier work
mGlu3 = settings: cited from earlier work
mGlu4 = settings: cited from earlier work
mGlu7 = settings: cited from earlier work
79 other targets = settings: cited from earlier work
[3] = rats (n = 2), 24 h after 30 mg/kg oral, % of all AE90015-related material

clearance [1]: 38 mL/min/kg | Excrete from Bile, normalized relative molar amount ([2]; bile duct-cannulated rats (n = 2), bile 0-24 h after 30 mg/kg oral, % of all AE90015-related material): 0.39% | share of total clearance by mono-oxidation (primary clearance pathway) ([2]; rat, 30 mg/kg oral, 24 h): 96% | direct excretion via renal and bile routes ([2]; rat, 30 mg/kg oral, 24 h, unchanged parent): 0.5% | Remain in Brain, normalized relative molar amount [2, 3]: 0.66% | Remain in Kidney, normalized relative molar amount [2, 3]: 0.16% | Remain in Liver, normalized relative molar amount [2, 3]: 0.98% | Remain in Plasma, normalized relative molar amount [2, 3]: 1.47% | Excrete from Urine, normalized relative molar amount ([2]; rats (n = 2), urine 0-24 h after 30 mg/kg oral, % of all AE90015-related material): 0.10%
SMILES: Cc1cncc(C(=O)NC23CC4CC(CC(NC(=O)c5ccccn5)(C4)C2)C3)n1 [AE90015]
affinity (human mGlu5 receptor): 18.5 nM | efficacy or affinity for mGlu1 (mGlu1): no significant efficacy or affinity | efficacy or affinity for mGlu2 (mGlu2): no significant efficacy or affinity | efficacy or affinity for mGlu3 (mGlu3): no significant efficacy or affinity | efficacy or affinity for mGlu4 (mGlu4): no significant efficacy or affinity | efficacy or affinity for mGlu7 (mGlu7): no significant efficacy or affinity | selectivity for mGlu5, preference compared to the 79 other targets tested (79 other targets): over 1000 fold
